Test results published in article PMC7566913, “Dual Gene Delivery Reagents From Antiproliferative Alkylphospholipids for Combined Antitumor Therapy” (Frontiers in Chemistry, 2020).

Tests used:
[1] = Particle size and zeta potential of lipoplexes by DLS; format: physicochemical; conditions: lipoplexes with pCMV-Gluc, 25 °C, 5 % glucose, N/P 3, 1 molar equivalent of DOPE
Description: The capacity of the pro-APLs to interact electrostatically with nucleic acids and form lipoplexes was checked by standard agarose gel electrophoresis. […] The size (hydrodynamic diameter) and charge (zeta potential, ζ) of the lipoplexes prepared at an N/P ratio of 3 with one molar equivalent of dioleoyl-sn-glycero-3-phosphatidylethanolamine (DOPE), a lipid with fusogenic properties (Hui et al., [1996]; Zuhorn et al., [2005]), were investigated by DLS (Supplementary Table 1).
as measured by DLS. Lipoplexes were prepared at 25 °C, in 5 % glucose, at a N/P ratio of 3 and with
1 molar equivalent of DOPE.
(Gaillard et al., 2019). Data are the mean of three independent measurements (± SD).

H292 cells = experiment: Antiproliferative effect of pUNO1-hTRAIL vs pCMV-Gluc lipoplexes, MTT, H292; format: cell-based, human; conditions: N/P 3, 1 eq. DOPE
Protocol: Cells were treated with lipoplexes prepared from pro-APLs ME12, PE12, and EE12, with increasing dose of pDNA (0.1–0.4 μg per well). The gold standard gene delivery reagent Lipofectamine® 2000 was assayed in parallel for comparison purpose. In order to distinguish the intrinsic cytotoxic effect of the in situ generated APLs from that resulting from TRAIL expression, pCMV-Gluc was assayed in parallel to pUNO1-hTRAIL. Using pCMV-Gluc, the observed cytotoxicity was assumed to result only from the APL antiproliferative activity, whereas results obtained with pUNO1-hTRAIL are a combination of TRAIL activity and APL antiproliferative effect. […] Though the temptation is to take it as an indicator that functional TRAIL was produced, the difference found was not always statistically significant. The activity profile of the three pro-APLs varied according to the cell line. […]
Figure 8 Antiproliferative effect of lipoplexes prepared from ME12 (A), PE12 (B), EE12 (C), and the two DNA plasmids pCMV-Gluc (light bars) and pUNO1-hTRAIL (dark bars), on the three cell lines. […] Lipofectamine®-based lipoplexes (0.1 μg plasmid/well) were prepared according to the optimized experimental conditions determined following the supplier's instructions. Cell viability was measured by the MTT assay. Basal mitochondrial activity measured in untreated cells is set at 100%. […]

[2] = Hydrolytic stability of the APL prodrugs monitored by 31P-NMR; format: physicochemical
Description: Aqueous formulation of the APL prodrugs produces nanosized lipid aggregates that most likely enter cells through the endocytosis pathway. To produce the expected intrinsic antineoplastic effect, APL-derived phosphotriesters need to be processed into the bioactive parent APLs. The hydrolysis of the prodrugs may be under the control of a chemical stimulus, e.g., a pH decrease as observed during the maturation of endosomes, or of degradation enzymes that massively enter the endosome compartment when continuing to lysosomes. To get some information on the transformation of pro-APLs into APLs, we monitored the hydrolysis of these compounds over time, at pH 7.4 and 4.5, conditions that mimick the extracellular milieu and the environment of the late endosome, respectively. This monitoring was realized using ^31P-NMR spectroscopy, according to a previously reported method (Pierrat et al., [2013b]). Whatever the compound investigated, only one single ^31P resonance did appear during the course of the experiments, corresponding to that of the parent APL. This confirmed that hydrolysis of the pro-APLs selectively occurred at the acetal center. […] As a general trend, hydrolysis of the pro-APLs was […] under neutral conditions (i.e., pH 7.4) than under acidic ones (i.e., pH 4.5). […] Besides, substitution of one hydrogen atom with a methyl group on the acetal bridge accelerated the rate of hydrolysis of the prodrugs. […] Indeed, in biological media, the enzyme-mediated hydrolysis of such compounds can proceed far quicker than “simple” chemical hydrolysis under pH control (Pierrat et al., [2012]). […]

CCCCCCCCCCCCCCCCCCOP(=O)(OCOC(=O)CCCCCCCCCCC)OC1CC[N+](C)(C)CC1.[Cl-] (stereo not shown) [PE12, 4-((((Dodecanoyloxy)methoxy)(octadecyloxy)phosphoryl)oxy)-1,1-dimethylpiperidin-1-ium chloride]
Particle size of lipoplexes [1]: 330 ± 76 nm
Cell death specifically induced by TRAIL (H292 cells): ca. 45%
H120 (hydrolysis rate after a 120-h incubation period) ([2]; pH 4.5): 2%
H120 (hydrolysis rate after a 120-h incubation period) ([2]; pH 7.4): 16%
